Laboratory results: patent US9708314B2, “Heterocyclic amide compound” (NISSAN CHEMICAL INDUSTRIES, LTD., priority 2013, dated 2017)

What was measured:
Format in all cases: in vivo
[1] = system: Echinochloa crus-galli var. crus-galli; test: Test Example 3: herbicidal effect by application to foliage (Wagner pot, water depth 0.1-0.5 cm); conditions: Nineteenth Table; application to foliage; application herbicide amount 320 g/ha
Procedure, shortened: (§1)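 Greenhouse pot test, 25–30 °C, alluvial soil. Sown seedlings grown 14 days then sprayed on leaves and stems with emulsion diluted to target g/ha. Rating at 3 weeks, 0–5 scale (0 ≤5%, 5 ≥90%).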

Cyperus difformis = test: as above; conditions: Nineteenth Table; application to foliage; application herbicide amount 320 g/ha
Procedure, shortened: as §1

Leptochloa chinensis = test: as above; conditions: Nineteenth Table; application to foliage; application herbicide amount 320 g/ha
Procedure, shortened: as §1

Apera spica-venti. = test: Test Example 4: herbicidal effect by application to foliage (diluvial soil, plastic box); conditions: application to foliage, application herbicide amount 320 g/ha
Procedure, shortened: (§2)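 Seeds sown in sterilized diluvial soil, covered ~1.5 cm, grown 14 days in greenhouse at 25° C. to 30° C. Emulsion formulation diluted in water to set rate (g/ha) and sprayed onto stems and leaves. Effect scored visually 3 weeks later on 0–5 scale (5 = ≥90% herbicidal ratio, 0 = ≤5%).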

Stellaria media = test: as above; conditions: application to foliage, application herbicide amount 320 g/ha
Procedure, shortened: as §2

Veronica persica = test: as above; conditions: application to foliage, application herbicide amount 320 g/ha
Procedure, shortened: as §2

[2] = system: Echinochloa crus-galli var. crus-galli; test: as above; conditions: application to foliage, application herbicide amount 320 g/ha
Procedure, shortened: as §2

Digitaria ciliaris = test: as above; conditions: application to foliage, application herbicide amount 320 g/ha
Procedure, shortened: as §2

Chenopodium album = test: as above; conditions: application to foliage, application herbicide amount 320 g/ha
Procedure, shortened: as §2

Amaranthus retroflexus = test: as above; conditions: application to foliage, application herbicide amount 320 g/ha
Procedure, shortened: as §2

Alopecurus myosuroides = test: as above; conditions: application to foliage, application herbicide amount 320 g/ha
Procedure, shortened: as §2

Avena fatua = test: as above; conditions: application to foliage, application herbicide amount 320 g/ha
Procedure, shortened: as §2

Setaria viridis = test: as above; conditions: application to foliage, application herbicide amount 320 g/ha
Procedure, shortened: as §2

Abutilon theophrasti = test: as above; conditions: application to foliage, application herbicide amount 320 g/ha
Procedure, shortened: as §2

Lolium multiflorum Lam. = test: as above; conditions: application to foliage, application herbicide amount 320 g/ha
Procedure, shortened: as §2

Galium spurium = test: as above; conditions: application to foliage, application herbicide amount 320 g/ha
Procedure, shortened: as §2

Triticum aestivum = test: Test Example 4: effect on crop by application to foliage (diluvial soil, plastic box); conditions: application to foliage, application herbicide amount 320 g/ha
Procedure, shortened: as §2

Zea mays = test: as above; conditions: application to foliage, application herbicide amount 320 g/ha
Procedure, shortened: as §2

Brassica campestris L. = test: as above; conditions: application to foliage, application herbicide amount 320 g/ha
Procedure, shortened: as §2

Glycine max = test: as above; conditions: application to foliage, application herbicide amount 320 g/ha
Procedure, shortened: as §2

[3] = system: Beta vulgaris ssp. vulgaris; test: as above; conditions: application to foliage, application herbicide amount 320 g/ha
Procedure, shortened: as §2

[4] = system: directly sowed Oryza sativa; test: as above; conditions: application to foliage, application herbicide amount 320 g/ha
Procedure, shortened: as §2

[5] = system: directly sowed Oryza sativa; test: Test Example 3: effect on crop by application to foliage (Wagner pot, water depth 0.1-0.5 cm); conditions: Nineteenth Table; application to foliage; application herbicide amount 320 g/ha
Procedure, shortened: as §1

SMILES | H (herbicidal effect grade) [1] | E (herbicidal effect grade) (Cyperus difformis) | D (herbicidal effect grade) (Leptochloa chinensis) | L: herbicidal effect on Apera spica-venti. (Apera spica-venti.) | P: herbicidal effect on Stellaria media (Stellaria media) | R: herbicidal effect on Veronica persica (Veronica persica) | H: herbicidal effect on Echinochloa crus-galli var. crus-galli [2] | F: herbicidal effect on Digitaria ciliaris (Digitaria ciliaris) | O: herbicidal effect on Chenopodium album (Chenopodium album) | N: herbicidal effect on Amaranthus retroflexus (Amaranthus retroflexus) | J: herbicidal effect on Alopecurus myosuroides (Alopecurus myosuroides) | I: herbicidal effect on Avena fatua (Avena fatua) | G: herbicidal effect on Setaria viridis (Setaria viridis) | M: herbicidal effect on Abutilon theophrasti (Abutilon theophrasti) | K: herbicidal effect on Lolium multiflorum Lam. (Lolium multiflorum Lam.) | Q: herbicidal effect on Galium spurium (Galium spurium) | e: effect on crop, Triticum aestivum (Triticum aestivum) | c: effect on crop, Zea mays (Zea mays) | g: effect on crop, Brassica campestris L. (Brassica campestris L.) | d: effect on crop, Glycine max (Glycine max) | also measured
CCC(CC)c1nnc2c(C(=O)Nc3nnnn3C)ccc(C(F)(F)F)n12 [2-006] | 5 (Herbicidal ratio of 90% or more (almost completely withered)) | 5 (Herbicidal ratio of 90% or more (almost completely withered)) | 5 (Herbicidal ratio of 90% or more (almost completely withered)) | 4 (Herbicidal ratio of 70% or more and less than 90%) | 5 (Herbicidal ratio of 90% or more (almost completely withered)) | 5 (Herbicidal ratio of 90% or more (almost completely withered)) | 5 (Herbicidal ratio of 90% or more (almost completely withered)) | 5 (Herbicidal ratio of 90% or more (almost completely withered)) | 5 (Herbicidal ratio of 90% or more (almost completely withered)) | 5 (Herbicidal ratio of 90% or more (almost completely withered)) | 2 (Herbicidal ratio of 20% or more and less than 40%) | 3 (Herbicidal ratio of 40% or more and less than 70%) | 5 (Herbicidal ratio of 90% or more (almost completely withered)) | 5 (Herbicidal ratio of 90% or more (almost completely withered)) | 1 (Herbicidal ratio of 5% or more and less than 20%) | 3 (Herbicidal ratio of 40% or more and less than 70%) | 3 (Herbicidal ratio of 40% or more and less than 70%) | 1 (Herbicidal ratio of 5% or more and less than 20%) | 4 (Herbicidal ratio of 70% or more and less than 90%) | 4 (Herbicidal ratio of 70% or more and less than 90%) | f: effect on crop, Beta vulgaris ssp. vulgaris [3]: 5 (Herbicidal ratio of 90% or more (almost completely withered)); b: effect on crop, directly sowed Oryza sativa [4]: 5 (Herbicidal ratio of 90% or more (almost completely withered)); b (effect on crop grade) [5]: 5 (Herbicidal ratio of 90% or more (almost completely withered))
Cn1nnnc1NC(=O)c1ccc(C(F)(F)F)n2c(-c3ccccc3)nnc12 [2-007] | 5 (Herbicidal ratio of 90% or more (almost completely withered)) | 5 (Herbicidal ratio of 90% or more (almost completely withered)) | 5 (Herbicidal ratio of 90% or more (almost completely withered)) | 4 (Herbicidal ratio of 70% or more and less than 90%) | 5 (Herbicidal ratio of 90% or more (almost completely withered)) | 5 (Herbicidal ratio of 90% or more (almost completely withered)) | 5 (Herbicidal ratio of 90% or more (almost completely withered)) | 5 (Herbicidal ratio of 90% or more (almost completely withered)) | 5 (Herbicidal ratio of 90% or more (almost completely withered)) | 5 (Herbicidal ratio of 90% or more (almost completely withered)) | 2 (Herbicidal ratio of 20% or more and less than 40%) | 3 (Herbicidal ratio of 40% or more and less than 70%) | 4 (Herbicidal ratio of 70% or more and less than 90%) | 5 (Herbicidal ratio of 90% or more (almost completely withered)) | 2 (Herbicidal ratio of 20% or more and less than 40%) | 1 (Herbicidal ratio of 5% or more and less than 20%) | 2 (Herbicidal ratio of 20% or more and less than 40%) | 0 (Herbicidal ratio of 5% or less (almost no effect)) | 4 (Herbicidal ratio of 70% or more and less than 90%) | 3 (Herbicidal ratio of 40% or more and less than 70%) | f: effect on crop, Beta vulgaris ssp. vulgaris [3]: 5 (Herbicidal ratio of 90% or more (almost completely withered)); b: effect on crop, directly sowed Oryza sativa [4]: 2 (Herbicidal ratio of 20% or more and less than 40%); b (effect on crop grade) [5]: 4 (Herbicidal ratio of 70% or more and less than 90%)
Cn1nnnc1NC(=O)c1ccc(C(F)(F)F)n2c(Cl)nnc12 [2-008] | 4 (Herbicidal ratio of 70% or more and less than 90%) | 4 (Herbicidal ratio of 70% or more and less than 90%) | 5 (Herbicidal ratio of 90% or more (almost completely withered)) | 1 (Herbicidal ratio of 5% or more and less than 20%) | 5 (Herbicidal ratio of 90% or more (almost completely withered)) | 4 (Herbicidal ratio of 70% or more and less than 90%) | 4 (Herbicidal ratio of 70% or more and less than 90%) | 3 (Herbicidal ratio of 40% or more and less than 70%) | 5 (Herbicidal ratio of 90% or more (almost completely withered)) | 5 (Herbicidal ratio of 90% or more (almost completely withered)) | 1 (Herbicidal ratio of 5% or more and less than 20%) | 3 (Herbicidal ratio of 40% or more and less than 70%) | 2 (Herbicidal ratio of 20% or more and less than 40%) | 5 (Herbicidal ratio of 90% or more (almost completely withered)) | 2 (Herbicidal ratio of 20% or more and less than 40%) | 3 (Herbicidal ratio of 40% or more and less than 70%) | 2 (Herbicidal ratio of 20% or more and less than 40%) | 0 (Herbicidal ratio of 5% or less (almost no effect)) | 3 (Herbicidal ratio of 40% or more and less than 70%) | 3 (Herbicidal ratio of 40% or more and less than 70%) | f: effect on crop, Beta vulgaris ssp. vulgaris [3]: 5 (Herbicidal ratio of 90% or more (almost completely withered)); b: effect on crop, directly sowed Oryza sativa [4]: 1 (Herbicidal ratio of 5% or more and less than 20%); b (effect on crop grade) [5]: 0 (Herbicidal ratio of 5% or less (almost no effect))
Cn1nnnc1NC(=O)c1ccc(C(F)(F)F)n2c(Br)nnc12 [2-009] | 5 (Herbicidal ratio of 90% or more (almost completely withered)) | 3 (Herbicidal ratio of 40% or more and less than 70%) | 4 (Herbicidal ratio of 70% or more and less than 90%) | 1 (Herbicidal ratio of 5% or more and less than 20%) | 5 (Herbicidal ratio of 90% or more (almost completely withered)) | 4 (Herbicidal ratio of 70% or more and less than 90%) | 5 (Herbicidal ratio of 90% or more (almost completely withered)) | 4 (Herbicidal ratio of 70% or more and less than 90%) | 5 (Herbicidal ratio of 90% or more (almost completely withered)) | 5 (Herbicidal ratio of 90% or more (almost completely withered)) | 1 (Herbicidal ratio of 5% or more and less than 20%) | 3 (Herbicidal ratio of 40% or more and less than 70%) | 3 (Herbicidal ratio of 40% or more and less than 70%) | 5 (Herbicidal ratio of 90% or more (almost completely withered)) | 2 (Herbicidal ratio of 20% or more and less than 40%) | 4 (Herbicidal ratio of 70% or more and less than 90%) | 1 (Herbicidal ratio of 5% or more and less than 20%) | 1 (Herbicidal ratio of 5% or more and less than 20%) | 4 (Herbicidal ratio of 70% or more and less than 90%) | 4 (Herbicidal ratio of 70% or more and less than 90%) | f: effect on crop, Beta vulgaris ssp. vulgaris [3]: 5 (Herbicidal ratio of 90% or more (almost completely withered)); b: effect on crop, directly sowed Oryza sativa [4]: 2 (Herbicidal ratio of 20% or more and less than 40%); b (effect on crop grade) [5]: 4 (Herbicidal ratio of 70% or more and less than 90%)
